{"source": "patent US6355799B1", "about": "“Substituted benzene compounds, process for their preparation, and herbicidal and defoliant compositions containing them” (ISK Americas Incorporated, priority 1997, dated 2002)", "assay_type_in_all_cases": "in vivo", "key": {"[1]": {"system": "lambsquarters (Chenopodium album, CHEAL)", "experiment": "Post-emerge test, greenhouse herbicide activity screening", "settings": "post-emerge, 14 days after application, rating scale 0-100", "outline": "(§1)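 Compounds in acetone were track-sprayed at 15-1000 g ai/ha (187 l/ha) on sandy loam pots: pre-emerge one day after seeding, post-emerge at 2-3 leaf stage with 0.25% v/v non-ionic surfactant. Phytotoxicity was rated 14 days later on a 0 (no damage) to 100 (complete death) scale.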"}, "[2]": {"system": "johnsongrass (Sorghum halepense, SORHA)", "experiment": "Post-emerge test, greenhouse herbicide activity screening", "settings": "post-emerge, 14 days after application, rating scale 0-100", "outline": "as §1"}, "[3]": {"system": "sicklepod (Cassia obtusifolia, CASOB)", "experiment": "Post-emerge test, greenhouse herbicide activity screening", "settings": "post-emerge, 14 days after application, rating scale 0-100", "outline": "as §1"}, "[4]": {"system": "velvetleaf (Abutilon theophrasti, ABUTH)", "experiment": "Post-emerge test, greenhouse herbicide activity screening", "settings": "post-emerge, 14 days after application, rating scale 0-100", "outline": "as §1"}, "[5]": {"system": "ivyleaf morningglory (Ipomoea hederacea, IPOHE)", "experiment": "Post-emerge test, greenhouse herbicide activity screening", "settings": "post-emerge, 14 days after application, rating scale 0-100", "outline": "as §1"}, "[6]": {"system": "common ragweed (Ambrosia artemisizfolia L., AMBEL)", "experiment": "Post-emerge test, greenhouse herbicide activity screening", "settings": "post-emerge, 14 days after application, rating scale 0-100", "outline": "as §1"}, "[7]": {"system": "large crabgrass (Digitaria sanguinalis, DIGSA)", "experiment": "Post-emerge test, greenhouse herbicide activity screening", "settings": "post-emerge, 14 days after application, rating scale 0-100", "outline": "as §1"}, "[8]": {"system": "redroot pigweed (Amaranthus retroflexus, AMARE)", "experiment": "Post-emerge test, greenhouse herbicide activity screening", "settings": "post-emerge, 14 days after application, rating scale 0-100", "outline": "as §1"}, "[9]": {"system": "green foxtail (Setaria viridis, SETVI)", "experiment": "Post-emerge test, greenhouse herbicide activity screening", "settings": "post-emerge, 14 days after application, rating scale 0-100", "outline": "as §1"}, "[10]": {"system": "barnyardgrass (Echinochloa crus-galli, ECHCG)", "experiment": "Post-emerge test, greenhouse herbicide activity screening", "settings": "post-emerge, 14 days after application, rating scale 0-100", "outline": "as §1"}, "[11]": {"system": "redroot pigweed (Amaranthus retroflexus, AMARE)", "experiment": "Pre-emerge test, greenhouse herbicide activity screening", "settings": "rated 14 days after application, 0 = no damage, 100 = complete death", "outline": "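Visual ratings on a 0-100 scale (0 no damage, 100 all plants dead) were taken at 14 days after treatment. Rates of 15-1000 g ai/ha in acetone, 187 l/ha, were sprayed onto soil one day after planting (pre-emerge) or onto 2-3 leaf plants with 0.25% v/v surfactant (post-emerge).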"}, "[12]": {"system": "upland rice (Oryza sp., var. Tebonnet, RICE)", "experiment": "Pre-emerge test, crop safety", "settings": "rated 14 days after application, 0 = no damage, 100 = complete death", "outline": "(§2)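 Plants grown in 10 cm pots of sandy loam mix received acetone-dissolved compounds through a moving flat-fan nozzle. Doses ranged from 15 to 1000 g ai/ha. Pre-emerge pots were seeded one day earlier, post-emerge pots 8–21 days earlier. Fourteen days on, each pot was graded 0–100 for damage.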"}, "[13]": {"system": "field corn (Zea mays L., var. Dekalb 535, CORN)", "experiment": "Pre-emerge test, crop safety", "settings": "rated 14 days after application, 0 = no damage, 100 = complete death", "outline": "as §2"}, "[14]": {"system": "upland rice (Oryza sp., var. Tebonnet, RICE)", "experiment": "Post-emerge test, crop safety", "settings": "post-emerge, 14 days after application, rating scale 0-100", "outline": "(§3)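 Rating: 0–100 visual injury, 14 DAA. Application: acetone, 187 l/ha, 15–1000 g ai/ha, flat-fan track sprayer with nozzle 40–45 cm above soil or canopy. Post-emerge runs used 0.25% v/v surfactant on 2–3 leaf plants.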"}, "[15]": {"system": "field corn (Zea mays L., var. Dekalb 535, CORN)", "experiment": "Post-emerge test, crop safety", "settings": "post-emerge, 14 days after application, rating scale 0-100", "outline": "as §3"}, "[16]": {"system": "lambsquarters (Chenopodium album, CHEAL)", "experiment": "Pre-emerge test, greenhouse herbicide activity screening", "settings": "rated 14 days after application, 0 = no damage, 100 = complete death", "outline": "(§4)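 Compounds in acetone were track-sprayed at 15–1000 g ai/ha: pre-emergence onto soil sown the previous day, then top-watered to incorporate and later bottom-watered; post-emergence onto 2–3 leaf plants with 0.25% v/v surfactant, bottom-watered only. Ratings on a 0–100 phytotoxicity scale were taken at day 14.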"}, "[17]": {"system": "johnsongrass (Sorghum halepense, SORHA)", "experiment": "Pre-emerge test, greenhouse herbicide activity screening", "settings": "rated 14 days after application, 0 = no damage, 100 = complete death", "outline": "as §4"}, "[18]": {"system": "sicklepod (Cassia obtusifolia, CASOB)", "experiment": "Pre-emerge test, greenhouse herbicide activity screening", "settings": "rated 14 days after application, 0 = no damage, 100 = complete death", "outline": "as §4"}, "[19]": {"system": "velvetleaf (Abutilon theophrasti, ABUTH)", "experiment": "Pre-emerge test, greenhouse herbicide activity screening", "settings": "rated 14 days after application, 0 = no damage, 100 = complete death", "outline": "as §4"}, "[20]": {"system": "ivyleaf morningglory (Ipomoea hederacea, IPOHE)", "experiment": "Pre-emerge test, greenhouse herbicide activity screening", "settings": "rated 14 days after application, 0 = no damage, 100 = complete death", "outline": "as §4"}, "[21]": {"system": "common ragweed (Ambrosia artemisizfolia L., AMBEL)", "experiment": "Pre-emerge test, greenhouse herbicide activity screening", "settings": "rated 14 days after application, 0 = no damage, 100 = complete death", "outline": "as §4"}, "[22]": {"system": "large crabgrass (Digitaria sanguinalis, DIGSA)", "experiment": "Pre-emerge test, greenhouse herbicide activity screening", "settings": "rated 14 days after application, 0 = no damage, 100 = complete death", "outline": "as §4"}, "[23]": {"system": "green foxtail (Setaria viridis, SETVI)", "experiment": "Pre-emerge test, greenhouse herbicide activity screening", "settings": "rated 14 days after application, 0 = no damage, 100 = complete death", "outline": "as §4"}, "[24]": {"system": "barnyardgrass (Echinochloa crus-galli, ECHCG)", "experiment": "Pre-emerge test, greenhouse herbicide activity screening", "settings": "rated 14 days after application, 0 = no damage, 100 = complete death", "outline": "as §4"}}}
{"smiles": "COc1c(Cl)cc(F)c(-n2c(=O)cc(C(F)(F)F)n(C)c2=O)c1NC(=O)c1cc(F)cc(F)c1", "note": "[2-50]", "values": [{"measurement": "phytotoxicity rating CHEAL", "setting": "[1]; 63 g ai/ha", "value": 70}, {"measurement": "phytotoxicity rating CHEAL", "setting": "[1]; 250 g ai/ha", "value": 90}, {"measurement": "phytotoxicity rating SORHA", "setting": "[2]; 63 g ai/ha", "value": 0}, {"measurement": "phytotoxicity rating SORHA", "setting": "[2]; 250 g ai/ha", "value": 40}, {"measurement": "phytotoxicity rating CASOB", "setting": "[3]; 63 g ai/ha", "value": 80}, {"measurement": "phytotoxicity rating CASOB", "setting": "[3]; 250 g ai/ha", "value": 90}, {"measurement": "phytotoxicity rating ABUTH", "setting": "[4]; 63 g ai/ha", "value": 100}, {"measurement": "phytotoxicity rating ABUTH", "setting": "[4]; 250 g ai/ha", "value": 100}, {"measurement": "phytotoxicity rating IPOHE", "setting": "[5]; 63 g ai/ha", "value": 100}, {"measurement": "phytotoxicity rating IPOHE", "setting": "[5]; 250 g ai/ha", "value": 100}, {"measurement": "phytotoxicity rating AMBEL", "setting": "[6]; 63 g ai/ha", "value": 40}, {"measurement": "phytotoxicity rating AMBEL", "setting": "[6]; 250 g ai/ha", "value": 65}, {"measurement": "phytotoxicity rating DIGSA", "setting": "[7]; 63 g ai/ha", "value": 10}, {"measurement": "phytotoxicity rating DIGSA", "setting": "[7]; 250 g ai/ha", "value": 30}, {"measurement": "phytotoxicity rating AMARE", "setting": "[8]; 63 g ai/ha", "value": 90}, {"measurement": "phytotoxicity rating AMARE", "setting": "[8]; 250 g ai/ha", "value": 100}, {"measurement": "phytotoxicity rating SETVI", "setting": "[9]; 63 g ai/ha", "value": 40}, {"measurement": "phytotoxicity rating SETVI", "setting": "[9]; 250 g ai/ha", "value": 60}, {"measurement": "phytotoxicity rating ECHCG", "setting": "[10]; 63 g ai/ha", "value": 0}, {"measurement": "phytotoxicity rating ECHCG", "setting": "[10]; 250 g ai/ha", "value": 30}, {"measurement": "Pre-emerge Herbicidal Activity, phytotoxicity rating (0-100), AMARE", "setting": "[11]; 63 g ai/ha", "value": 100}, {"measurement": "Pre-emerge Herbicidal Activity, phytotoxicity rating (0-100), AMARE", "setting": "[11]; 250 g ai/ha", "value": 100}, {"measurement": "Pre-emerge phytotoxicity rating (0-100), crop damage, RICE", "setting": "[12]; 63 g ai/ha", "value": 25}, {"measurement": "Pre-emerge phytotoxicity rating (0-100), crop damage, RICE", "setting": "[12]; 250 g ai/ha", "value": 90}, {"measurement": "Pre-emerge phytotoxicity rating (0-100), crop damage, CORN", "setting": "[13]; 63 g ai/ha", "value": 5}, {"measurement": "Pre-emerge phytotoxicity rating (0-100), crop damage, CORN", "setting": "[13]; 250 g ai/ha", "value": 70}, {"measurement": "phytotoxicity rating RICE", "setting": "[14]; 63 g ai/ha", "value": 60}, {"measurement": "phytotoxicity rating RICE", "setting": "[14]; 250 g ai/ha", "value": 65}, {"measurement": "phytotoxicity rating CORN", "setting": "[15]; 63 g ai/ha", "value": 10}, {"measurement": "phytotoxicity rating CORN", "setting": "[15]; 250 g ai/ha", "value": 70}, {"measurement": "Pre-emerge Herbicidal Activity, phytotoxicity rating (0-100), CHEAL", "setting": "[16]; 63 g ai/ha", "value": 100}, {"measurement": "Pre-emerge Herbicidal Activity, phytotoxicity rating (0-100), CHEAL", "setting": "[16]; 250 g ai/ha", "value": 100}, {"measurement": "Pre-emerge Herbicidal Activity, phytotoxicity rating (0-100), SORHA", "setting": "[17]; 63 g ai/ha", "value": 30}, {"measurement": "Pre-emerge Herbicidal Activity, phytotoxicity rating (0-100), SORHA", "setting": "[17]; 250 g ai/ha", "value": 80}, {"measurement": "Pre-emerge Herbicidal Activity, phytotoxicity rating (0-100), CASOB", "setting": "[18]; 63 g ai/ha", "value": 60}, {"measurement": "Pre-emerge Herbicidal Activity, phytotoxicity rating (0-100), CASOB", "setting": "[18]; 250 g ai/ha", "value": 100}, {"measurement": "Pre-emerge Herbicidal Activity, phytotoxicity rating (0-100), ABUTH", "setting": "[19]; 63 g ai/ha", "value": 100}, {"measurement": "Pre-emerge Herbicidal Activity, phytotoxicity rating (0-100), ABUTH", "setting": "[19]; 250 g ai/ha", "value": 100}, {"measurement": "Pre-emerge Herbicidal Activity, phytotoxicity rating (0-100), IPOHE", "setting": "[20]; 63 g ai/ha", "value": 70}, {"measurement": "Pre-emerge Herbicidal Activity, phytotoxicity rating (0-100), IPOHE", "setting": "[20]; 250 g ai/ha", "value": 100}, {"measurement": "Pre-emerge Herbicidal Activity, phytotoxicity rating (0-100), AMBEL", "setting": "[21]; 63 g ai/ha", "value": 60}, {"measurement": "Pre-emerge Herbicidal Activity, phytotoxicity rating (0-100), AMBEL", "setting": "[21]; 250 g ai/ha", "value": 100}, {"measurement": "Pre-emerge Herbicidal Activity, phytotoxicity rating (0-100), DIGSA", "setting": "[22]; 63 g ai/ha", "value": 70}, {"measurement": "Pre-emerge Herbicidal Activity, phytotoxicity rating (0-100), DIGSA", "setting": "[22]; 250 g ai/ha", "value": 100}, {"measurement": "Pre-emerge Herbicidal Activity, phytotoxicity rating (0-100), SETVI", "setting": "[23]; 63 g ai/ha", "value": 90}, {"measurement": "Pre-emerge Herbicidal Activity, phytotoxicity rating (0-100), SETVI", "setting": "[23]; 250 g ai/ha", "value": 100}, {"measurement": "Pre-emerge Herbicidal Activity, phytotoxicity rating (0-100), ECHCG", "setting": "[24]; 63 g ai/ha", "value": 10}, {"measurement": "Pre-emerge Herbicidal Activity, phytotoxicity rating (0-100), ECHCG", "setting": "[24]; 250 g ai/ha", "value": 100}]}
